Legend:
free hemoglobin = assay: Immunofluorescence of extravascular free hemoglobin in prefrontal cortex brain tissue, acute hypobaric hypoxia model; assay type: in vivo, cynomolgus monkeys (Macaca fascicularis); settings: 7500 meters for 48 hours, compared with acute hypobaric hypoxia group, FIG. 1
Source text: FIG. 1. Acute hypobaric hypoxia caused an increase in extravascular distribution of free hemoglobin in the brain tissue of the prefrontal cortex of cynomolgus monkeys (Macaca fascicularis). […] B. MFI (Mean Fluorescence Intensity) was quantified using Nikon NIS-Element software. The statistics of the relative fluorescence intensity of free hemoglobin distributed extravascularly in the brain tissue of cynomolgus monkeys was shown, and one-way ANOVA analysis and Dunnutt's t test were used to perform statistical tests, **, p<0.01, ns, no statistical difference, n=4. NN: Normobaric Normoxia group; HH: Hypobaric Hypoxia group; HH+Triol: Hypobaric Hypoxia with Triol administration group; HH+PROG: Hypobaric Hypoxia with control drug administration group. PROG represents the control drug progesterone.
The thickness of paraffin sections was 5 μm. For fresh paraffin sections, the sections were dried at 37° C. overnight and then dried at 55° C. for 30 minutes. The sections were quickly placed in xylene for dewaxing. […] NIS-Elements Analysis software was used to analyze the fluorescence intensity of confocal images, which was then normalized with the fluorescence intensity per unit area according to the built-in scale. […]

IL-1β = assay: Western blot of IL-1β in prefrontal cortex brain tissue, acute hypobaric hypoxia model; assay type: in vivo, cynomolgus monkeys; settings: FIGS. 3A and 3B
Source text: (§1) FIG. 3. […] A. Protein expression of inflammatory factors IL-6, IL-1β and TNF-α in the brain tissue of the prefrontal cortex of cynomolgus monkeys; B. Statistics of protein relative gray scan values. NN: Normobaric Normoxia group (N=3); HH: Hypobaric Hypoxia group (N=3); HH+Triol: Hypobaric Hypoxia with Triol administration group (N=3); HH+PROG: Hypobaric Hypoxia with control drug administration group (N=3). The gray value was obtained by scanning with Image Lab software, and the relative value was obtained after normalizing with α-Tubulin. One-way ANOVA analysis and Dunnutt's t test were used to perform statistical tests, and in the latter each group was compared with the HH group, *, p<0.05; **, p<0.01.
(§2) 1) Preparation of protein samples (see the instructions of M-PER protein lysate): After the cells had been processed for the specified time, the medium was aspirated and then washed with 4° C. pre-chilled PBS (0.01M pH7.2˜7.3) for 3 times. […] 2) BCA protein quantification (see the instructions of BCA protein quantification kit): corresponding components were added to a 96-well detection plate by the ratio of quantification reagent A solution:B solution:ddH2O:protein=100:2:7.5:5, and albumin standards diluted in gradient concentration were added to draw a standard curve. […] After the reaction, the absorbance of each well at a wavelength of 562 nm was detected using a microplate reader. […]

IL-6 = assay: Western blot of IL-6 in prefrontal cortex brain tissue, acute hypobaric hypoxia model; assay type: in vivo, cynomolgus monkeys; settings: FIGS. 3A and 3B
Source text: as §1, §2

C[C@@]12CCCC1C1C[C@@H](O)[C@@]3(O)C[C@@H](O)CC[C@]3(C)C1CC2 (stereo partly drawn) [Triol, 5α-androst-3β,5,6β-triol]
significantly reduced: distribution of extravascular free hemoglobin (free hemoglobin) | expression level of IL-1β (IL-1β) | expression level of IL-6 (IL-6)
